Measured values: US20260072027A1, “Peptides And Method” (Queen Mary University of London, priority 2022, published 2026)
Where no end group is shown, it is not given here. [ ]: non-standard residue; d: D form. Dopa = N[C@@H](Cc1ccc(O)c(O)c1)C(=O)O

Legend:
[1] = tested on: CD4+ T-cells (PBMCs); assay: In vitro peptide stimulation and T-cell proliferation assay, CD4+; assay type: cell-based, human
Excerpt: (§1) In vitro peptide stimulation and T-cell proliferation assay. Peripheral blood mononuclear cells (PBMCs) were freshly isolated from type 1 diabetes and healthy individuals using Ficoll-Hypaque density gradient centrifugation. PBMCs were labelled with the fluorescent dye CellTrace Violet (Invitrogen, Thermo Fisher Scientific) and cultured (2×10^5 cells/well) in round-bottom 96-well plates (Falcon, Becton Dickinson) with RPMI-1640 medium (Gibco, Thermo Fisher Scientific) supplemented with 5% autologous plasma in the presence or not of insulin peptides (20 μg/ml); PPD (10 μg/ml) and anti-CD3 (0.1 μg/ml; clone OKT3) were used as positive control. Two scrambled peptides: […] (SEQ ID NO: 17), […] (SEQ ID NO: 18), and the Exendin 9-39 fragment were used as negative controls. After 7 days, PBMCs were stained with PE-Cy7 anti-CD8 (clone RPA-T8, BD Pharmingen) and FITC anti-CD3 (clone UCHT1, BD Pharmingen). Samples were analysed by using a FACSCanto II (BD Bioscience) to evaluate T-cell proliferation measured as CellTrace Violet dilution. Cytofluorimetric analyses were performed using FlowJo Software (FlowJo, LLC). The results were given as stimulation index (SI), calculated as percentage of stimulated T-cell subset proliferation/percentage of unstimulated T-cell subset proliferation. Assay for detection of peptide specific T cells subsets was done as previously described (detailed in ESM methods, Assay for detection of peptide specific T cells)
(§2) T-cell stimulation with oxPTM-INSPs. To evaluate the immune cell response against the oxPTM-INSPs, we performed CD4+ and CD8+ T cells proliferation experiments using freshly isolated PBMCs (Study cohort 2, Table 1). Response was calculated as stimulatory index (SI) over unstimulated T-cells.

[2] = tested on: CD8+ T-cells (PBMCs); assay: In vitro peptide stimulation and T-cell proliferation assay, CD8+; assay type: cell-based, human
Excerpt: as §1, §2

[3] = tested on: serum IgG autoantibodies; assay: ELISA for autoantibody detection: serum antibody binding to native and oxPTM insulin peptides; design: species or system human; details: for % binders, Healthy controls / Mean ± SEM (absorbance, OD), Healthy controls / % binders, Type 1 diabetes: Study cohort 1; for % binders, Type 1 diabetes: cut-off = mean of healthy controls to Nt-INSP plus 3 SEM; for Mean ± SEM (absorbance, OD), Type 1 diabetes: Study cohort 1 sera
Method: ELISA for autoantibody detection. The ELISA analysis of Nt-INS and oxPTM-INS autoantibodies was performed as previously described [18](detailed in ESM methods, ELISA assay for antibody detection).
Statistical analyses. Statistical analyses were performed using Prism Software 9.0 (GraphPad, San Diego, CA, USA). Cut-off points of positivity (binders) in the antibody ELISA for each peptide were defined by the mean of optical absorbance (O.D) of healthy controls to the corresponding Nt-INSP plus three times the standard error of the mean (SEM). Specificity and sensitivity were evaluated by receiver operating characteristic (ROC) curve analysis. Area under the curve (AUC) is reported as absolute value and was tested for equality according to DeLong et al. Differences in antibody levels and T-cell stimulation indices (SI) between groups were tested by the One way ANOVA or Student's t-tests as appropriate. Correlation analyses were tested by Pearson or Spearman's test, as appropriate. Categorical analyses were performed by Chi-square or McNemar's tests, as appropriate. For each set of experiments, p values were adjusted for multiple comparison using the Holm-Sidak's test. Hierarchical cluster and Principal Component Analysis (PCA) was done using Clustvis software (https://biit.cs.ut.ee/clustvis/) and Prism Software 9.0, respectively.
Antibody reactivity of type 1 diabetes serum against the candidate oxPTM-INSP. Identified peptide candidates were synthesised and exposed to either HOCl or ^●OH to generate oxPTM-INSPs that were first assessed by TOF-MS/ES+TIC to confirm modification (FIG. 17). Antibody response against native INSPs (Nt-INSPs) and oxPTM-INSPs was evaluated by ELISA using sera from Study cohort 1.
ESM Methods ELISA assay for antibody detection. The ELISA analysis of native (Nt-INS) and modified insulin (oxPTM-INS) was performed as previously described. Briefly, the ELISA plate was coated overnight at 4° C. with 100 μl per well of modified or native insulin in 0.05 M carbonate/bicarbonate buffer pH 9.6 at 10 μg/ml. The next day, the plates were washed 3 times with 0.1% Tween PBS, followed by blocking for 2 hours at room temperature with 200 μl per well of 5% BSA in 0.1% Tween PBS. After washing, 100 μl of 1:200-diluted serum samples in 5% BSA-0.1% Tween PBS were added for additional 2 hours incubation. ELISA plates were then washed 3 times with 0.1% Tween PBS followed by probing with anti-human IgG horse radish peroxidase conjugated (HRP, Sigma) at 1:1,000 dilution in 5% BSA-0.1% Tween PBS for another 1.5 hours incubation. The ELISA plates were washed, and 100 μg/ml TMB substrate in 0.1M sodium acetate pH 6.0 plus 2 μl/10 ml of H2O2, were added. Subsequently, the reaction was stopped with 20% v/v sulphuric acid. The optical density (O.D.) was measured at 450 nm using a GENios plate reader and Magellan software (TECAN, Dorset, UK).

Substance	CD4+ T-cell response, subjects with SI > 1 (%) ([1]; Controls (N = 11))	CD4+ T-cell response, subjects with SI > 3 (%) ([1]; Controls (N = 11))	CD4+ T-cell response, subjects with SI > 5 (%) ([1]; Controls (N = 11))	CD4+ T-cell response, subjects with SI > 10 (%) ([1]; Controls (N = 11))	CD4+ T-cell response, subjects with SI > 1 (%) ([1]; Type 1 diabetes (N = 18))	CD4+ T-cell response, subjects with SI > 3 (%) ([1]; Type 1 diabetes (N = 18))	CD4+ T-cell response, subjects with SI > 5 (%) ([1]; Type 1 diabetes (N = 18))	CD4+ T-cell response, subjects with SI > 10 (%) ([1]; Type 1 diabetes (N = 18))	CD8+ T-cell response, subjects with SI > 1 (%) ([2]; Controls (N = 11))	CD8+ T-cell response, subjects with SI > 3 (%) ([2]; Controls (N = 11))	CD8+ T-cell response, subjects with SI > 5 (%) ([2]; Controls (N = 11))	CD8+ T-cell response, subjects with SI > 10 (%) ([2]; Controls (N = 11))	CD8+ T-cell response, subjects with SI > 1 (%) ([2]; Type 1 diabetes (N = 18))	CD8+ T-cell response, subjects with SI > 3 (%) ([2]; Type 1 diabetes (N = 18))	CD8+ T-cell response, subjects with SI > 5 (%) ([2]; Type 1 diabetes (N = 18))	CD8+ T-cell response, subjects with SI > 10 (%) ([2]; Type 1 diabetes (N = 18))	% binders, Healthy controls ([3]; in house modifications) [%]	Mean ± SEM (absorbance, OD), Healthy controls ([3]; in house modifications)	% binders, Type 1 diabetes ([3]; in house modifications) [%]	Mean ± SEM (absorbance, OD), Type 1 diabetes ([3]; in house modifications)	further results
ERGFFYTPKTR (Ac-ERGFFYTPKTR) [INSP-6 with C-terminal arginine]	(36.4%)	(0.0%)	(0.0%)	(0.0%)	(55.6%)	(27.8%)	(21.1%)	(11.1%)	(27.3%)	(0.0%)	(0.0%)	(0.0%)	(44.4%)	(16.7%)	(16.7%)	(16.7%)	–	–	–	–	–
ERGYY-DOPA-TPKT (ERGYY[Dopa]TPKT) [in silico designed oxPTM-INSP-6 derivative]	(27.3%)	(0.0%)	(0.0%)	(0.0%)	(50.0%)	(5.6%)	(5.2%)	(5.6%)	(18.2%)	(9.10%)	(0.0%)	(0.0%)	(27.8%)	(0.0%)	(0.0%)	(0.0%)	–	–	–	–	% binders, Healthy controls ([3]; in silico modifications): 30%; Mean ± SEM (absorbance, OD), Healthy controls ([3]; in silico modifications): 0.357 ± 0.030; % binders, Type 1 diabetes ([3]; in silico modifications): 100%; Mean ± SEM (absorbance, OD), Type 1 diabetes ([3]; in silico modifications): 0.536 ± 0.021; type 1 diabetes binders (IgG autoantibody reactivity) ([3]; Study cohort 2, N = 18): 55.5%
ERGYYYTPKT (Ac-ERGYYYTPKT) [in silico designed oxPTM-INSP-6 derivative]	(36.4%)	(18.2%)	(9.1%)	(0.0%)	(50.0%)	(22.2%)	(0.0%)	(0.0%)	(27.3%)	(18.2%)	(18.2%)	(9.1%)	(22.2%)	(11.1%)	(11.1%)	(5.6%)	–	–	–	–	% binders, Healthy controls ([3]; in silico modifications): 25%; Mean ± SEM (absorbance, OD), Healthy controls ([3]; in silico modifications): 0.351 ± 0.044; % binders, Type 1 diabetes ([3]; in silico modifications): 100%; Mean ± SEM (absorbance, OD), Type 1 diabetes ([3]; in silico modifications): 0.556 ± 0.031
FVNQHLC [INSP-5, insulin B:1-7 peptide]	–	–	–	–	–	–	–	–	–	–	–	–	–	–	–	–	–	–	–	–	Antibody reactivity of serum samples (in words) ([3]; ELISA): No significant reactivity
INSP-3 oxPTM-HOCI: INSP-3 peptide oxidised in house by HOCl (SLYQLENYCN; not fully specified (N-terminus); also: oxidised by HOCl, modified residues not defined)	–	–	–	–	–	–	–	–	–	–	–	–	–	–	–	–	40	0.452 ± 0.048	53	0.473 ± 0.037	–
INSP-3 oxPTM-•OH: INSP-3 peptide oxidised in house by hydroxyl radical (SLYQLENYCN; not fully specified (N-terminus); also: oxidised by hydroxyl radical, modified residues not defined)	–	–	–	–	–	–	–	–	–	–	–	–	–	–	–	–	86	0.617 ± 0.042	86	0.667 ± 0.044	Mean ± SEM (absorbance, OD), Type 1 diabetes ([3]; in house modifications, listed as ●OH-modified oxPTM-INSP-3): 0.667±0.044
INSP-4 oxPTM-HOCI: INSP-4 peptide oxidised in house by HOCl (LVEALYLVCGERGFFYTPKT; also: oxidised by HOCl, modified residues not defined)	–	–	–	–	–	–	–	–	–	–	–	–	–	–	–	–	27	0.296 ± 0.022	66	0.563 ± 0.053	Mean ± SEM (absorbance, OD), Type 1 diabetes ([3]; in house modifications, listed as HOCl-modified oxPTM-INSP-4): 0.563±0.053
